Measurements taken from patent US20240226228A1, “ANTIMICROBIAL PEPTOID HAVING IMPROVED SELECTIVITY AND ANTIMICROBIAL COMPOSITION COMPRISING SAME” (priority 2021, published 2024).
Where a SMILES comes first, the peptide text is derived from it. [ ]: non-standard residue; d: D form. Gly(N(CH2)2(3-indolyl)) = O=C(O)CNCCc1c[nH]c2ccccc12; Nspe = C[C@H](NCC(=O)O)c1ccccc1; Nphe = O=C(O)CNCc1ccccc1; Nlys = NCCCCNCC(=O)O

System: red blood cells
Assay: Hemolysis assay
Assay type: cell-based, Sprague-Dawley mouse
Procedure: To confirm cytotoxicity by the hemolytic activity of each peptoid synthesized in Example 1, hemolysis analysis was performed. The used blood was collected from a 13-week-old male Sprague-Dawley […] in a tube containing 158 UPS sodium heparin for preventing coagulation, and centrifuged at 4° C. for 10 minutes at 1,000 rpm. Afterward, the plasma was carefully removed, red blood cells were washed with phosphate-buffered saline (PBS: a mixed solution of 35 mM phosphate-buffered solution/150 mM NaCl, pH 7.4) three times and centrifuged at 1,000 rpm for 10 minutes. A 10% (v/v) red blood cell solution diluted in PBS was dispensed at 150 μL into a 96-well plate (microtiter plate), a peptoid solution was added at 50 μL, and 1% Triton X-100 was added. Afterward, the red blood cells were incubated at 37° C. for 1 hour, and the incubated 96-well plate was centrifuged at 1,000 rpm for 15 minutes. A supernatant was obtained and transferred to a new 96-well plate at 150 μL, and absorbance was measured using a spectrophotometer at 540 nm. Percent hemolysis may be calculated by the following Equation 1, and the corresponding results are shown in Tables 11 to 13. % Hemolysis=(A−C)/(B−C)×100 [Equation 1] In Equation 1, A is the absorbance of the peptoid solution at 540 nm, B is the absorbance of the 0.1% Triton X-100 at 540 nm, and C is the absorbance of the PBS solution at 540 nm.

Question: For C[C@@H](c1ccccc1)N(CC(N)=O)C(=O)CN(C(=O)CN(CCCCN)C(=O)CN(C(=O)CN(C(=O)CN(CCCCN)C(=O)CN(C(=O)CN(C(=O)CN(CCCCN)C(=O)CN(C(=O)CN(C(=O)CN(CCCCN)C(=O)CNCCc1c[nH]c2ccccc12)[C@@H](C)c1ccccc1)[C@@H](C)c1ccccc1)[C@@H](C)c1ccccc1)[C@@H](C)c1ccccc1)[C@@H](C)c1ccccc1)[C@@H](C)c1ccccc1)[C@@H](C)c1ccccc1 [Peptoid 3], which HC10 is on record?
Answer: Its HC10 is 6.3 µM.

Question: What about the HC50 of the same molecule?
Answer: Its HC50 is 13.9 µM.

Question: What about the “Hmax (100 μM)” value of the same molecule?
Answer: The value was 100.5 ± 9.9%.

Question: Which results are given for C[C@@H](c1ccccc1)N(CC(=O)N(CCCCN)CC(=O)N(CC(=O)N(CC(=O)N(CCCCN)CC(=O)N(CC(=O)N(CC(=O)N(CCCCN)CC(=O)N(CC(=O)N(CC(=O)N(CCc1c[nH]c2ccccc12)CC(N)=O)[C@@H](C)c1ccccc1)[C@@H](C)c1ccccc1)[C@@H](C)c1ccccc1)[C@@H](C)c1ccccc1)[C@@H](C)c1ccccc1)[C@@H](C)c1ccccc1)C(=O)CN(C(=O)CNCCCCN)[C@@H](C)c1ccccc1 [Peptoid 4] (H-[Nlys][Nspe][Nspe][Nlys][Nspe][Nspe][Nlys][Nspe][Nspe][Nlys][Nspe][Nspe][Gly(N(CH2)2(3-indolyl))]-NH2)?
Answer: HC10: < 6.3 µM; HC50: 6.7 µM; Hmax (100 μM): 103.2 ± 0.9%

Question: What does the source list for C[C@@H](c1ccccc1)N(CC(=O)N(CCCCN)CC(=O)N(CC(=O)N(CC(=O)N(CCCCN)CC(=O)N(CC(=O)N(CC(=O)N(CCCCN)CC(=O)N(CC(=O)N(CC(=O)N(CCc1c[nH]c2ccccc12)CC(N)=O)[C@@H](C)c1ccccc1)[C@@H](C)c1ccccc1)[C@@H](C)c1ccccc1)[C@@H](C)c1ccccc1)[C@@H](C)c1ccccc1)[C@@H](C)c1ccccc1)C(=O)CN(C(=O)CN(CCCCN)C(=O)CNCCc1c[nH]c2ccccc12)[C@@H](C)c1ccccc1 [Peptoid 5] (H-[Gly(N(CH2)2(3-indolyl))][Nlys][Nspe][Nspe][Nlys][Nspe][Nspe][Nlys][Nspe][Nspe][Nlys][Nspe][Nspe][Gly(N(CH2)2(3-indolyl))]-NH2)?
Answer: HC10: < 6.3 µM; HC50: 15.3 µM; Hmax (100 μM): 108.1 ± 2.7%

Question: Which HC10 does the source give for C[C@@H](c1ccccc1)N(CC(N)=O)C(=O)CN(C(=O)CN(CCCCN)C(=O)CN(C(=O)CN(C(=O)CN(CCCCN)C(=O)CN(C(=O)CN(C(=O)CN(CCCCN)C(=O)CN(C(=O)CN(C(=O)CN(CCCCN)C(=O)CN(CCc1c[nH]c2ccccc12)C(=O)CNCCc1c[nH]c2ccccc12)[C@@H](C)c1ccccc1)[C@@H](C)c1ccccc1)[C@@H](C)c1ccccc1)[C@@H](C)c1ccccc1)[C@@H](C)c1ccccc1)[C@@H](C)c1ccccc1)[C@@H](C)c1ccccc1 [Peptoid 6] here?
Answer: Its HC10 is 9.6 µM.

Question: And the HC50?
Answer: The HC50 was 22.0 µM.

Question: And the “Hmax (100 μM)” value?
Answer: Its value is 101.6 ± 5.8%.

Question: With C[C@@H](c1ccccc1)N(CC(N)=O)C(=O)CN(C(=O)CN(CCCCN)C(=O)CN(CCc1c[nH]c2ccccc12)C(=O)CN(C(=O)CN(CCCCN)C(=O)CN(C(=O)CN(C(=O)CN(CCCCN)C(=O)CN(C(=O)CN(C(=O)CNCCCCN)[C@@H](C)c1ccccc1)[C@@H](C)c1ccccc1)[C@@H](C)c1ccccc1)[C@@H](C)c1ccccc1)[C@@H](C)c1ccccc1)[C@@H](C)c1ccccc1 [Peptoid 8] as the molecule, how does the HC10 read?
Answer: The HC10 was 12.8 µM.

Question: What about the HC50 of the same molecule?
Answer: The HC50 was 28.4 µM.

Question: What about the “Hmax (100 μM)” value of the same molecule?
Answer: Its value is 105.1 ± 2.2%.

Question: How did the HC10 turn out when C[C@@H](c1ccccc1)N(CC(N)=O)C(=O)CN(C(=O)CN(CCCCN)C(=O)CN(C(=O)CN(CCCCN)C(=O)CN(CCCCN)C(=O)CN(C(=O)CN(C(=O)CN(CCCCN)C(=O)CN(C(=O)CN(C(=O)CN(CCCCN)C(=O)CN(CCc1c[nH]c2ccccc12)C(=O)CNCCc1c[nH]c2ccccc12)[C@@H](C)c1ccccc1)[C@@H](C)c1ccccc1)[C@@H](C)c1ccccc1)[C@@H](C)c1ccccc1)[C@@H](C)c1ccccc1)[C@@H](C)c1ccccc1 [Peptoid 35] was run?
Answer: Its HC10 is 20.4 µM.

Question: And the HC50?
Answer: Its HC50 is 63.0 µM.

Question: And the “Hmax (100 μM)” value?
Answer: The value was 82.6 ± 3.2%.

Question: Which results are given for C[C@@H](c1ccccc1)N(CC(N)=O)C(=O)CN(C(=O)CN(CCCCN)C(=O)CN(C(=O)CN(C(=O)CN(CCCCN)C(=O)CN(C(=O)CN(C(=O)CN(CCCCN)C(=O)CN(C(=O)CN(CCCCN)C(=O)CN(CCCCN)C(=O)CN(CCc1c[nH]c2ccccc12)C(=O)CNCCc1c[nH]c2ccccc12)[C@@H](C)c1ccccc1)[C@@H](C)c1ccccc1)[C@@H](C)c1ccccc1)[C@@H](C)c1ccccc1)[C@@H](C)c1ccccc1)[C@@H](C)c1ccccc1 [Peptoid 36]?
Answer: HC10: 15.3 µM; HC50: 39.4 µM; Hmax (100 μM): 89.1 ± 3.4%

Question: How did the HC10 turn out when C[C@@H](c1ccccc1)N(CC(=O)N(CCCCN)CC(=O)N(CC(=O)N(CC(=O)N(CCCCN)CC(=O)N(CC(=O)N(CC(=O)N(CCCCN)CC(=O)N(CC(=O)N(CC(=O)N(CC(N)=O)Cc1ccccc1)[C@@H](C)c1ccccc1)[C@@H](C)c1ccccc1)[C@@H](C)c1ccccc1)[C@@H](C)c1ccccc1)[C@@H](C)c1ccccc1)[C@@H](C)c1ccccc1)C(=O)CN(C(=O)CN(CCCCN)C(=O)CNCc1ccccc1)[C@@H](C)c1ccccc1 [Peptoid 42] (H-[Nphe][Nlys][Nspe][Nspe][Nlys][Nspe][Nspe][Nlys][Nspe][Nspe][Nlys][Nspe][Nspe][Nphe]-NH2) was run?
Answer: The HC10 was less than 3.1 µM.

Question: And the HC50?
Answer: The HC50 was 6.6 µM.

Question: And the “Hmax (100 μM)” value?
Answer: The value was 105.9 ± 1.1%.

Question: For C[C@@H](c1ccccc1)N(CC(N)=O)C(=O)CN(C(=O)CN(CCCCN)C(=O)CN(C(=O)CN(C(=O)CN(CCCCN)C(=O)CN(C(=O)CN(C(=O)CN(CCCCN)C(=O)CN(C(=O)CN(C(=O)CN(CCCCN)C(=O)CN(Cc1ccccc1)C(=O)CNCc1ccccc1)[C@@H](C)c1ccccc1)[C@@H](C)c1ccccc1)[C@@H](C)c1ccccc1)[C@@H](C)c1ccccc1)[C@@H](C)c1ccccc1)[C@@H](C)c1ccccc1)[C@@H](C)c1ccccc1 [Peptoid 43], which HC10 is on record?
Answer: Its HC10 is less than 3.1 µM.

Question: What about the HC50 of the same molecule?
Answer: The HC50 was 6.4 µM.

Question: What about the “Hmax (100 μM)” value of the same molecule?
Answer: The value was 105.6 ± 3.8%.

Question: How did the HC10 turn out when C[C@@H](c1ccccc1)N(CC(N)=O)C(=O)CN(CCCCN)C(=O)CN(C(=O)CN(C(=O)CN(CCCCN)C(=O)CN(C(=O)CN(C(=O)CN(CCCCN)C(=O)CN(C(=O)CN(CCCCN)C(=O)CN(CCCCN)C(=O)CN(C(=O)CNCCc1c[nH]c2ccccc12)[C@@H](C)c1ccccc1)[C@@H](C)c1ccccc1)[C@@H](C)c1ccccc1)[C@@H](C)c1ccccc1)[C@@H](C)c1ccccc1)[C@@H](C)c1ccccc1 [Peptoid 61] was run?
Answer: The HC10 was 19.3 µM.

Question: What about the HC50 of the same molecule?
Answer: The HC50 was 65.4 µM.

Question: What about the “Hmax (100 μM)” value of the same molecule?
Answer: Its value is 79.9 ± 0.7%.

Question: Which results are given for C[C@@H](c1ccccc1)N(CC(N)=O)C(=O)CN(CCCCN)C(=O)CN(C(=O)CN(C(=O)CN(CCCCN)C(=O)CN(C(=O)CN(CCCCN)C(=O)CN(CCCCN)C(=O)CN(C(=O)CN(C(=O)CN(CCCCN)C(=O)CN(C(=O)CNCCc1c[nH]c2ccccc12)[C@@H](C)c1ccccc1)[C@@H](C)c1ccccc1)[C@@H](C)c1ccccc1)[C@@H](C)c1ccccc1)[C@@H](C)c1ccccc1)[C@@H](C)c1ccccc1 [Peptoid 62]?
Answer: HC10: 36.2 µM; HC50: > 100 µM; Hmax (100 μM): 44.8 ± 8.1%

Question: With C[C@@H](c1ccccc1)N(CC(N)=O)C(=O)CN(CCCCN)C(=O)CN(C(=O)CN(CCCCN)C(=O)CN(CCCCN)C(=O)CN(C(=O)CN(C(=O)CN(CCCCN)C(=O)CN(C(=O)CN(C(=O)CN(CCCCN)C(=O)CN(C(=O)CNCCc1c[nH]c2ccccc12)[C@@H](C)c1ccccc1)[C@@H](C)c1ccccc1)[C@@H](C)c1ccccc1)[C@@H](C)c1ccccc1)[C@@H](C)c1ccccc1)[C@@H](C)c1ccccc1 [Peptoid 63] as the molecule, how does the HC10 read?
Answer: Its HC10 is 85.0 µM.

Question: And the HC50?
Answer: Its HC50 is greater than 100 µM.

Question: What about the “Hmax (100 μM)” value of the same molecule?
Answer: Its value is 12.7 ± 0.9%.

Question: Which HC10 does the source give for C[C@@H](c1ccccc1)N(CC(=O)N(CCCCN)CC(=O)N(CC(=O)N(CC(=O)N(CCCCN)CC(=O)N(CC(=O)N(CC(=O)N(CCCCN)CC(=O)N(CC(=O)N(CC(=O)N(CCCCN)CC(=O)N(CCCCN)CC(N)=O)[C@@H](C)c1ccccc1)[C@@H](C)c1ccccc1)[C@@H](C)c1ccccc1)[C@@H](C)c1ccccc1)[C@@H](C)c1ccccc1)[C@@H](C)c1ccccc1)C(=O)CNCCc1c[nH]c2ccccc12 [Peptoid 64] (H-[Gly(N(CH2)2(3-indolyl))][Nspe][Nlys][Nspe][Nspe][Nlys][Nspe][Nspe][Nlys][Nspe][Nspe][Nlys][Nlys]-NH2) here?
Answer: Its HC10 is 70.7 µM.

Question: And the HC50?
Answer: The HC50 was greater than 100 µM.

Question: And the “Hmax (100 μM)” value?
Answer: The value was 18.9 ± 2.9%.
